Our source for the IC50 values is patent US20050004126A1 (priority 2001, published 2005).

SMILES strings stand for the structures. “And” between values parts separate entries of the source, which are not always exact repeats. Equal values may be shown once. Where a name gives a salt, the structure may show the parent alone. Read-outs that look alike come from different tables or passages of the source.

Assay [1] addresses MMP-3CD (catalytic domain of stromelysin) (Homo sapiens, UniProt P08254). Put plainly: Thiopeptolide hydrolysis assay, MMP-3.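 Further: inhibition of thiopeptolide substrate (100 µM) cleavage by the MMP-3 catalytic domain, detected with DTNB at pH 6.0 with CaCl2, hydrolysis compared against runs lacking inhibitor.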 The following applies: read-out: MMP03 IC50. The class given is biochemical.
Procedure: (§1) They measure the amount by which a test compound reduces the hydrolysis of a thiopeptolide substrate caused by a matrix metalloproteinase enzyme.
(§2) Thiopeptolide substrates show virtually no decomposition or hydrolysis in the absence of a matrix metalloproteinase enzyme. A typical thiopeptolide substrate commonly utilized for assays is Ac-Pro-Leu-Gly-thioester-Leu-Leu-Gly-OEt. A 100 μL assay mixture will contain 50 mM of 2-morpholinoethane sulfonic acid monohydrate (MES, pH 6.0) 10 mM CaCl2, 100 μM thiopeptolide substrate, and 1 mM 5,5′-dithio-bis-(2-nitro-benzoic acid) (DTNB). […] Assays are carried out with and without matrix metalloproteinase inhibitor compounds, and the amount of hydrolysis is compared for a determination of inhibitory activity of the test compounds.
In assay [2] the target is MMP-13CD (catalytic domain of collagenase 3) (Homo sapiens, UniProt P45452). Put plainly: Thiopeptolide hydrolysis assay, MMP-13.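 Further: inhibition of enzymatic thiopeptolide substrate cleavage (100 µM) in pH 6.0 MES buffer with CaCl2 and DTNB, comparing hydrolysis with versus without inhibitor.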
Procedure: as §1, §2
The target in assay [3] is T1, MMP-1FL (full-length interstitial collagenase) (Homo sapiens, UniProt P03956).
T1 sequence (P03956 100-469): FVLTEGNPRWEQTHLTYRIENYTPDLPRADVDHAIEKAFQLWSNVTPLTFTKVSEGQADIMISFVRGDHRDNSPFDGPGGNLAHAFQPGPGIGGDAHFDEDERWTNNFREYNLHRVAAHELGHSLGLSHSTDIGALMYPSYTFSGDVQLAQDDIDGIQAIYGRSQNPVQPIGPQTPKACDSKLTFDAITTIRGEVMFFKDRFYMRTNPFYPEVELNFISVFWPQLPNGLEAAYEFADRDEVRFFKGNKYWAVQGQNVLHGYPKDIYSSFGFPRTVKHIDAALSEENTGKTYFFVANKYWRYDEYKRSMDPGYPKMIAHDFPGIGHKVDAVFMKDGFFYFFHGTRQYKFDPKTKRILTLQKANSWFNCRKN
Put plainly: Thiopeptolide hydrolysis assay, MMP-1. The class given is biochemical. The note with it: read-out: MMP01 IC50.

Chain of MMP-3CD (catalytic domain of stromelysin) (P08254 100-272 limits assumed): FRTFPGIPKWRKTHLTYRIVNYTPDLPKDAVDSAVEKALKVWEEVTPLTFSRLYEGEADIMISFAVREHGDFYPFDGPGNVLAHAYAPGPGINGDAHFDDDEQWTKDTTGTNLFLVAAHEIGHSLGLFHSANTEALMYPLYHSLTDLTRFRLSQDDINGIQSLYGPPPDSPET

For orientation: IC50 means the concentration at which inhibition is half-maximal. For the compound `COC(=O)c1ccc(Cn2c(=O)c(C)c3sc(C(=O)NCc4ccc(F)cc4)cn3c2=O)cc1Cl`, the concentration for half-maximal inhibition (IC50) in assay [1] (Table 1b) is over 30000 nM; in assay [2] (MMP13 IC50 (μM), Table 1b) it was 0.24 µM; in assay [3] (Table 1b) it was over 30000 nM.

Regarding `COc1ccc(C(=O)OCc2ccc3nsnc3c2)cc1C(=O)OCc1ccc2nsnc2c1`, the concentration for half-maximal inhibition (IC50) in assay [3] (Table II) worked out at 30000 nM.

Take `COC(=O)c1ccc(Cn2c(=O)c(C)c3sc(C(=O)NCc4ccc(F)cc4)cn3c2=O)cc1OC`: the IC50 was 0.099 µM in assay [2] (MMP13 IC50 (μM), Table 1b) and over 30000 nM in assay [3] (Table 1b).

As for `Cc1c(=O)n(Cc2ccc(C(=O)OCCN(C)C)cc2)c(=O)n2cc(C(=O)NCc3ccc(F)cc3)sc12`, the IC50 is over 30000 nM in assay [1] (Table 1b); 0.094 µM in assay [2] (MMP13 IC50 (μM), Table 1b); over 100000 nM in assay [3] (Table 1b).

With `COC(=O)c1ccc(Cn2c(=O)c(C)c3sc(C(=O)NCc4ccc(F)cc4)cn3c2=O)cc1C`, the IC50 in assay [1] (Table 1b) is 18000 nM; in assay [2] (MMP13 IC50 (μM), Table 1b), 0.018 µM; in assay [3] (Table 1b), over 100000 nM.

Take `O=C(NCc1ccccc1)c1cn2c(=O)n(C(=O)c3ccccc3)c(=O)cc2s1`: the concentration for half-maximal inhibition (IC50) in assay [1] (Table 1b) is over 30000 nM; in assay [2] (MMP13 IC50 (μM), Table 1b), 6.7 µM; in assay [3] (Table 1b) it was over 30000 nM.

As to `Cc1c(=O)n(Cc2ccccc2)c(=O)n2cc(C(=O)NCc3ccc4nsnc4c3)sc12`, the IC50 in assay [2] (MMP13 IC50 (μM), Table 1b) was 0.0046 µM; in assay [3] (Table 1b), over 30000 nM.

Take `Cc1c(=O)n(Cc2ccc(Cl)cc2)c(=O)n2cc(C(=O)NCc3ccncc3)sc12`: the IC50 in assay [1] (Table 1b) was over 30000 nM; in assay [2] (MMP13 IC50 (μM), Table 1b) it was 0.053 µM; in assay [3] (Table 1b), over 30000 nM.

`Cc1c(=O)n(Cc2ccc(-c3nn[nH]n3)cc2)c(=O)n2cc(C(=O)NCc3ccc(F)cc3)sc12`: the IC50 in assay [1] (Table 1b) was 16000 nM; in assay [2] (MMP13 IC50 (μM), Table 1b), 0.0009 µM; in assay [3] (Table 1b), over 100000 nM.

For `Cc1nc(Cn2c(=O)c(C)c3sc(C(=O)NCc4ccc(F)cc4)cn3c2=O)cs1`, the concentration for half-maximal inhibition (IC50) in assay [1] (Table 1b) is over 30000 nM; in assay [2] (MMP13 IC50 (μM), Table 1b) it was 0.77 µM; in assay [3] (Table 1b) it was over 100000 nM.

Consider `O=C(OCc1ccc2nsnc2c1)c1cccc(C(=O)OCc2ccc3nsnc3c2)c1`, for which the IC50 in assay [1] (Table II) is over 30000 nM; in assay [3] (Table II), over 100000 nM.

For `O=C(O)c1ccc(COC(=O)c2cccc(C(=O)NCc3ccc4c(c3)OCO4)c2)cc1`, the IC50 is 0.033 µM in assay [2] (MMP13 IC50 (nM), Table II) and over 100000 nM in assay [3] (Table II).

With `CC(C)Oc1ccc(C(=O)NCc2ccc3c(c2)OCO3)cc1C(=O)NCc1ccc2c(c1)OCO2`, the IC50 stood at 3.75 µM in assay [2] (MMP13 IC50 (nM), Table II) and 71000 nM in assay [3] (Table II).

With `COC(=O)Nc1cc(Cn2c(=O)c(C)c3sc(C(=O)NCc4ccc(F)cc4)cn3c2=O)on1`, the IC50 in assay [1] (Table 1b) is over 30000 nM; in assay [2] (MMP13 IC50 (μM), Table 1b), 0.205 µM; in assay [3] (Table 1b), over 30000 nM.

Take `COc1ccc(CNC(=O)c2ccc(OC)c(C(=O)NCc3ccc(OC)cc3)c2)cc1` [4-Methoxy-N,N′-bis-(4-methoxybenzyl)-isophthalamide] [listing 1 of 2 here]: the IC50 in assay [1] (Table II) amounted to 82000 nM; in assay [2] (MMP13 IC50 (nM), Table II), 0.25 µM.

For the compound `COc1ccc(CNC(=O)c2ccc(OC)c(C(=O)NCc3ccc(OC)cc3)c2)cc1` [4-Methoxy-N,N′-bis-(4-methoxybenzyl)-isophthalamide] [listing 2 of 2 here], the 50% inhibitory concentration (IC50) in assay [3] (Table II) is over 100000 nM.

In the case of `O=C(Nc1cccc(CO)c1)c1cccc(C(=O)Nc2cccc(CO)c2)c1` [N,N′-Bis-(3-hydroxymethyl-phenyl)-isophthalamide], the half-inhibitory concentration (IC50) is 7.8 µM in assay [2] (MMP13 IC50 (nM), Table II) and over 100000 nM in assay [3] (Table II).

Turning to `O=C(NCc1ccncc1)c1ccc2c(c1)c(=O)n(C/C=C/c1ccncc1)c1nncn21` [N-(pyridin-4-ylmethyl) 4-[3-(pyridin-4-yl)-2-propen-1-yl]-5-oxo-4H-[1,2,4]triazolo[4,3-a]quinazol-7-ylcarboxamide], the IC50 in assay [2] (IC50 μM, Table V, MMP-13) was 0.35 µM.

In the case of `N#Cc1ccc(Cn2c(=O)c3cc(C(=O)NCc4ccncc4)ccc3n3cnnc23)cc1` [N-(pyridin-4ylmethyl)-4-(4-cyanobenzyl)-5-oxo-4H-[1,2,4]triazolo[4,3-a]quinazol-7-ylcarboxamide], in assay [2] (IC50 μM, Table V, MMP-13), the IC50 stood at 0.021 µM.

As to `O=C(NCCCSc1ccncc1)c1ccc2c(c1)c(=O)n(Cc1ccccc1)c1nncn21` [N-[3-(4-Pyridylsulphanyl)propyl]-4-benzyl-5-oxo-4,5-dihydro[1,2,4]triazolo[4,3-a]quinazoline-7-carboxamide], in assay [2] (IC50 μM, Table V, MMP-13), the IC50 was 0.185 µM.

Regarding `Cc1c(=O)n(Cc2ccc(C(=O)O)cc2)c(=O)n2cc(C(=O)NCc3ccc(F)cc3)sc12` [Sodium Salt], the IC50 in assay [1] (Table 1b) turned out to be 55500 nM; in assay [2] (MMP13 IC50 (μM), Table 1b) it was 0.002 µM.

For the compound `O=C(NCc1ccc2c(c1)OCO2)c1cccc(C(=O)NCc2ccc3c(c2)OCO3)c1` [Synthesis Example 11, N,N-Bis-1,3-benzodioxol-5-ylmethyl-isophthalamide], the concentration for half-maximal inhibition (IC50) was 69000 nM and 81000 nM in assay [1] (Table II); 0.33 µM and 0.683 µM in assay [2] (MMP13 IC50 (nM), Table II).

For `O=C(OCc1ccccc1)c1ccc2c(c1)c(=O)n(Cc1ccccc1)c1nncn21` [Synthesis Example 55, Benzyl 4-benzyl-5-oxo-4H-[1,2,4]triazolo[4,3-a]quinazol-7-ylcarboxylate], it took 0.0034 µM to reach half-maximal inhibition in assay [2] (IC50 μM, Table V, MMP-13) (IC50).

Turning to `O=C(OCc1ccncc1)c1ccc2c(c1)c(=O)n(Cc1ccccc1)c1nncn21` [Synthesis Example 56, 4-Pyridylmethyl 4-benzyl-5-oxo-4H-[1,2,4]triazolo[4,3-a]quinazol-7-yl-carboxylate], the half-maximal inhibitory concentration (IC50) in assay [2] (IC50 μM, Table V, MMP-13) is 0.0023 µM.

Take `O=C(NCc1ccc2c(c1)OCO2)c1ccc2c(c1)c(=O)n(Cc1ccccc1)c1nncn21` [Synthesis Example 57, N-(3,4-Methylenedioxybenzyl)-4-benzyl-5-oxo-4H-[1,2,4]triazolo[4,3-a]quinazol-7-ylcarboxamide]: the midpoint of inhibition in assay [2] (IC50 μM, Table V, MMP-13), the IC50, lay at 0.004 µM.

Take `N#Cc1ccc(Cn2c(=O)c3cc(C(=O)NCc4ccc5c(c4)OCO5)ccc3n3cnnc23)cc1` [Synthesis Example 58, N-(3,4-Methylenedioxybenzyl)-4-(4-cyanobenzyl)-5-oxo-4H-[1,2,4]triazolo[4,3-a]quinazol-7-ylcarboxamide]: the IC50 in assay [2] (IC50 μM, Table V, MMP-13) was determined as 0.0023 µM.

For `COc1ccc(CNC(=O)c2ccc3c(c2)c(=O)n(Cc2ccc(C(=O)O)cc2)c2nncn32)cc1` [Synthesis Example 60, 4-{7-[(4-Methoxybenzyl)-carbamoyl]-5-oxo-5H-[1,2,4]triazolo[4,3-a]quinazol-4-ylmethyl}benzoic acid], the IC50 in assay [2] (IC50 μM, Table V, MMP-13) was 0.0011 µM.

For the compound `COC(=O)c1ccc(Cn2c(=O)c3cc(C#CCc4ccc(OC)cc4)ccc3n(C)c2=O)cc1` [Synthesis Example 66, Methyl 4-{6-[3-(4-methoxyphenyl)-prop-1-ynyl]-1-methyl-2,4-dioxo-1,4-dihydro-2H-quinazolin-3-ylmethyl}-benzoate], the half-inhibitory concentration (IC50) in assay [2] (IC50 μM, Table VII, MMP-13) was 0.01 µM.

Regarding `COc1ccc(CC#Cc2ccc3c(c2)c(=O)n(Cc2ccc(C(=O)O)cc2)c(=O)n3C)cc1` [Synthesis Example 68, 4-{6-[3-(4-Methoxy-phenyl)-prop-1-ynyl]-1-methyl-2,4-dioxo-1,4-dihydro-2H-quinazolin-3-ylmethyl}-benzoic acid], in assay [2] (IC50 μM, Table VII, MMP-13), the IC50 was 0.0006 µM.

Turning to `Cn1c(=O)n(Cc2ccc(C(=O)O)cc2)c(=O)c2cc(C#CCc3ccccc3)ncc21` [Synthesis Example 69, 4-[1-Methyl-2,4-dioxo-6-(3-phenyl-prop-1-ynyl)-1,4-dihydro-2H-pyrido[3,4-d]pyrimidin-3-ylmethyl]-benzoic acid], in assay [2] (IC50 μM, Table VII, MMP-13), the IC50 stood at 0.0065 µM.

On to `COc1ccc(CC#Cc2cc3c(=O)n(Cc4ccc(C(=O)O)cc4)c(=O)n(C)c3cn2)cc1` [Synthesis Example 70, 4-{6-[3-(4-Methoxy-phenyl)-prop-1-ynyl]-1-methyl-2,4-dioxo-1,4-dihydro-2H-pyrido[3,4-d]pyrimidin-3-ylmethyl}-benzoic acid], for which the half-maximal inhibitory concentration (IC50) in assay [2] (IC50 μM, Table VII, MMP-13) was 0.0012 µM.

Compound `O=c1c2cc(C#CCc3ccccc3)ccc2n2cnnc2n1Cc1ccccc1` [Synthesis Example 71, 4-Benzyl-7-(3-phenyl-prop-1-ynyl)-4H-[1,2,4]triazolo[4,3-a]quinazolin-5-one] came in with an IC50 in assay [2] (IC50 μM, Table VII, MMP-13) of 0.0055 µM.

In the case of `COc1ccc(CC#Cc2ccc3c(c2)c(=O)n(Cc2ccccc2)c2nncn32)cc1` [Synthesis Example 72, 4-Benzyl-7-[(4-methoxyphenyl)-prop-1-ynyl]-4H-[1,2,4]-triazolo[4,3-a]quinazolin-5-one], in assay [2] (IC50 μM, Table VII, MMP-13), the 50% inhibitory concentration (IC50) was found to be 0.0015 µM.

`COC(=O)c1ccc(Cn2c(=O)c3cc(C#CCc4ccc(OC)cc4)ccc3n3cnnc23)cc1` [Synthesis Example 73, Methyl 4-{7-[3-(4-methoxy-phenyl)-prop-1-ynyl]-5-oxo-5H-[1,2,4]triazolo[4,3-a]quinazolin-4-ylmethyl}-benzoate] registered an IC50 in assay [2] (IC50 μM, Table VII, MMP-13) of 0.0017 µM.

Take `O=C(O)c1ccc(Cn2c(=O)c3cc(C#CCc4ccccc4)ccc3n3cnnc23)cc1` [Synthesis Example 74, 4-[5-Oxo-7-(3-phenyl-prop-1-ynyl)-5H-[1,2,4]triazolo[4,3-a]quinazolin-4-ylmethyl]-benzoic acid]: the IC50 in assay [2] (IC50 μM, Table VII, MMP-13) stood at 0.001 µM.

In assay [2] (IC50 μM, Table VII, MMP-13), `Cn1c(=O)n(Cc2ccc(C(=O)O)cc2)c(=O)c2cc(C#Cc3ccccc3)ccc21` [Synthesis Example 75, 4-(1-Methyl-2,4-dioxo-6-(2-phenylethynyl)-1,4-dihydro-2H-quinazolin-3-ylmethyl)-benzoic acid] gave an IC50 of 1.34 µM.

In the case of `COc1ccc(CNC(=O)c2cn3c(=O)n(Cc4ccccc4)c(=O)c(C)c3s2)cn1` [hydrochloride], the IC50 in assay [1] (Table 1b) stood at 20500 nM; in assay [2] (MMP13 IC50 (μM), Table 1b), 0.0208 µM.

On to `Cc1c(=O)n(Cc2ccccc2)c(=O)n2cc(C(=O)NCc3cccnc3)sc12` [hydrochloride], for which the IC50 in assay [2] (MMP13 IC50 (μM), Table 1b) is 0.26 µM; in assay [3] (Table 1b) it was over 30000 nM.
